According to patent publication US20220315895A1, “METHODS OF MAKING OLIGOPOTENT AND UNIPOTENT PRECURSORS” (Transfusion Health, LLC, priority 2019, published 2022):

Assays:
[1] = test system: CD34+ cells from cord blood; test: HSC Expansion Culture, 21 and 63 days (Example 38); type: cell-based, human; settings: +Formula I Condition (Compound 1.010 8 μM)
Protocol: CD34+ cells from cord blood were purchased from STEMCELL Technologies. Primary human CD34+ cells were isolated by the supplier from cord blood samples using positive immunomagnetic separation techniques. Cells were thawed, gradually brought to room temperature, then washed.
Cells were placed in overnight culture in StemSpan with 100 ng/ml each of FLT3L, TPO, SCF, and IL-6. Eighteen hours later (day 1), cells were counted and immunophenotyped (flow cytometry on an Invitrogen Attune N×T cytometer).
A portion of these cells were washed and placed directly into various “Differentiation Cultures,” described below. The remainder of cells were placed into “HSC Expansion Culture,” described here. Approximately 1000 live cells were plated into duplicate 25 cm^2 flasks; exact cell numbers dispensed per flask were quantified with flow cytometry for later calculations. […]
Following 21 and 63 days in Expansion Culture, prior to passaging or CD34 re-enrichment, a sample was taken from each flask for analysis of phenotypes (flow cytometry on an Invitrogen Attune N×T cytometer). Cell numbers calculated for these analyses take into account passaging of cells on prior days. Fold expansion of CD34+ cells was calculated by dividing the cell numbers at later days (21 and 63) by the number of CD34+ cells quantified at day 1.

[2] = test system: CD3+ and CD3+/CD8+ T cells; test: T-cell Maturation and CD8 Maturation Culture (Example 41); type: cell-based, human
Protocol: Following 14 days in Lymphoid Progenitor Differentiation Cultures, cells were placed into T- and NK-cell Maturation Cultures.
For T-cell Maturation Cultures, 24-well non-TC-treated plates were coated with StemSpan Lymphoid Differentiation Coating Material (STEMCELL Technologies) according to the manufacturer's instructions. Immediately prior to initiation of T-cell Maturation Culture, wells were washed with PBS. Cells from L Diff Cultures were plated at 50,000 cells/well in 500 μl of T Cell Progenitor Maturation Medium, comprising StemSpan SFEM II medium with StemSpan T Cell Progenitor Maturation Supplement.
Following 4 days of culture, NK- and T-cell Maturation Cultures' medias were replenished by adding an equal volume of the same culture media added on day 14. At days 21 and 25 of NK- or T-cell Maturation Cultures, half-media changes were performed by removing half of the total volume of media without disturbing cells and adding media freshly prepared as on day 14.
Following 7 and 14 days in NK- and T-cell Maturation Culture (21 and 28 days from initiation of Lymphoid Differentiation Culture, respectively), cells were stained with antibodies to CD56, CD3, CD161, CD94, and CD16 and analyzed via flow cytometry to quantify T and NK lineage phenotypes.
T-cell Maturation Cultures were continued for an additional 14 days, plated at 50,000-75,000 cells/well into 24-well non-TC-treated plates freshly coated with Lymphoid Differentiation Coating Material as above. Cultures were continued for this 14 day-period with half-media changes every 3-4 days.
Following a total of 42 days in Lymphoid Progenitor Differentiation and T-cell Maturation cultures, T cells from 14-day+Formula I-expanded L Diff Culture and 14-day DMSO-expanded L Diff Culture were placed into CD8 Maturation Culture as follows: A 24-well plate was coated with Lymphocyte Differentiation Coating Medium as above. […] Following 6 days in this maturation medium, cells were analyzed for mature T cell phenotypes by staining for CD3, CD8a, CD4, CD56 and performing flow cytometry on an Attune N×T flow cytometer. […]

[3] = CD8, Lymphoid Diff day 49, +Formula I-expanded CD34+ cells

CC(C)(C)C(=O)Nc1ccc2c(c1)C(O)c1ccccc1-2 (centres unmarked) [Compound 1.010]
fold expansion of CD34+ cells ([1]; 21 days): 600 fold | fold expansion of CD34+ cells ([1]; 63 days): 244,000 fold | % Mature cells: CD4+/CD8α+ of Live/CD3+/CD56− [2, 3]: 0.5% | % Mature cells: CD4−/CD8α+ of Live/CD3+/CD56− [2, 3]: 95% | CD8a+ cells, of CD3+ cells ([2]; CD34+ cells first expanded for 14 days in +Formula I conditions): 95%
